Measured values as given in PMC4500398, “All-Purpose Containers? Lipid-Binding Protein – Drug Interactions” (PLoS ONE, 2015).

Key:
[1] = target: T1, c-FABPL (fatty acid-binding protein from G. gallus liver) (Gallus gallus, UniProt P80226); assay: […]-NMR titration (n.O.e., T1) and competition with cholate; parameters: gene FABP1; purified from chicken liver, delipidated
T1 sequence (P80226 2-126): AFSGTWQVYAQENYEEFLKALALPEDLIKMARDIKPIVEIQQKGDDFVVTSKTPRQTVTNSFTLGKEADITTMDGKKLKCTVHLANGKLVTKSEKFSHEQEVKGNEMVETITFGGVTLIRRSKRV

[2] = target: T1, c-FABPL (fatty acid-binding protein from G. gallus liver); assay: […]-NMR (T1, n.O.e.) and displacement by cholate; parameters: gene FABP1; purified from chicken liver, delipidated
[3] = target: T1, c-FABPL (fatty acid-binding protein from G. gallus liver); assay: […]-NMR titration with […]-enriched ligand; […]-NMR competition; parameters: gene FABP1; apo protein, purified from chicken liver
[4] = target: T1, c-FABPL (fatty acid-binding protein from G. gallus liver); assay: […]-NMR titration with […]-enriched ligand; parameters: gene FABP1; apo protein, purified from chicken liver

SMILES: CC(C)n1c(/C=C/[C@@H](O)C[C@@H](O)CC(=O)O)c(-c2ccc(F)cc2)c2ccccc21 (relative stereo) [compound 14, fluvastatin]
- 19F-NMR titration (n.O.e., T1) and competition with cholate [1]: Symmetric competition experiments between fluvastatin and cholate

SMILES: CCCCCCCCCCCCCCC(F)C(=O)O (stereo not shown) [16–17, 2-fluoropalmitate]
- 19F-NMR (T1, n.O.e.) and displacement by cholate [2]: only using a tenfold excess of cholate the ligand was completely removed from the protein

SMILES: C[C@H](CCC(=O)O)[C@H]1CC[C@H]2[C@@H]3[C@H](O)C[C@@H]4C[C@H](O)CC[C@]4(C)[C@H]3C[C@H](O)[C@]12C [compound 7, cholate]
- 13C-NMR titration with 13C-enriched ligand; 19F-NMR competition [3]: The titration indicates two sites of comparable affinity for cholate, and of different affinity for glycocholate

SMILES: C[C@H](CCC(=O)NCC(=O)O)[C@H]1CC[C@H]2[C@@H]3[C@H](O)C[C@@H]4C[C@H](O)CC[C@]4(C)[C@H]3C[C@H](O)[C@]12C [glycocholate]
- 13C-NMR titration with 13C-enriched ligand [4]: The titration indicates two sites of comparable affinity for cholate, and of different affinity for glycocholate
